The record followed here is patent US5578608A, “Symmetrical diaryl and diheteroanyl cis epoxy alkanes antiviral compounds” (Eli Lilly and Company, priority 1995, dated 1996).

Each structure is given as a SMILES string.

The target of the first assay is T1, HIV-1 protease (Human immunodeficiency virus type 1 group M subtype B, UniProt P04585).
T1 construct: made in house; host or cells: E. coli K12 L507/pHP10D (NRRL B-18560)
The assay is described as follows: biochemical. As to conditions: at 1000 ng/ml; read-out: Fluorescence Assay, given as ICxx (1000): xx is the percent inhibition. The procedure:
A culture of E. coli K12 L507/pHP10D was grown to mid-log phase at 32° C. in LB media containing 12.5 μg/ml tetracycline. The cultivation temperature was quickly elevated to 40° C. to induce gene expression, and the cells were allowed to grow for 2.5 hours at this temperature before the culture was quickly chilled on ice. The cells were centrifuged and the cell pellet was resuspended in 20 mL 50 mmol MES buffer (pH 6.0) containing 1 mmol EDTA, 1 mmol DTT, 1 mmol PMSF and 10% glycerol ("Buffer A"). Cells were lysed by sonication using a Fischer Model 300 Dismembrator and a microtip probe. Following centrifugation at 27,000 x g, the supernatant was diluted to a total volume of 60 mL with Buffer A and loaded onto a 2.0×19 cm QAE-Sepharose column (1 mL/min, 4° C.), that had been equilibrated in Buffer A. The column was washed isocratically for 180 min and then eluted with a gradient eluent of 0-1.0M NaCl in Buffer A over 120 min. Enzymatic activity was measured by HPLC using the synthetic peptide SQNYPIV as described in Margolin et al., Biochem. Biophys. Res. Commun., […], 554-560 (1990); the production of the p1 peptide (SQNY) was measured.
N^a -Biotin-[…]N^e -FITC)-OH SEQ ID NO: 1
The following buffers and solutions are used in the Fluorescence HIV-1 Protease Inhibitor Assay:
To each well of a round bottom, 96-well plate is added 20 μL of the Enzyme Solution followed by 10 μL of the compound to be evaluated in a 20% aqueous dimethylsulfoxide solution. Purified HIV-1 protease was obtained as described above. The resulting solution is incubated for one hour at room temperature and then 20 μL of a solution containing the substrate, N^a -Biotin-[…]N^e-FITC)-OH, in MES-ALB buffer ([…]) is added to each well. The solutions are then incubated for 16 hours at room temperature and then each well is diluted with 150 μL of MES-ALB buffer.
To each well of a second round bottom, 96-well Pandex plate is added 25 uL of the Avidin Coated Beads Solution. Then, to each well is added 25 μL of the diluted incubation solutions, prepared above. The solutions are mixed thoroughly and the plates are loaded into a Pandex® machine, washed, evacuated and read. Sample detection was performed by excitation at 485 nm, reading the resulting epifluorescence at 535 nm.
With `CCCC[C@H](NC(=O)OCc1ccccn1)C(=O)N[C@@H](Cc1ccccc1)[C@@H]1O[C@@H]1[C@H](Cc1ccccc1)NC(=O)[C@H](CCCC)NC(=O)OCc1ccccn1` [Example 25, 1,6-Diphenyl-2(S),5(S)-di[N-[2(S)-N(pyrid-2-ylmethoxycarbonyl)amino]hexanoyl]amino-3,4-cis-epoxyhexane], the inhibition (usually the drop in the measured response relative to a control, in per cent) at 1 µg/mL was found to be 40%.
The same measure, in the same setting: as for `CC[C@H](C)[C@H](NC(=O)N(C)Cc1ccccn1)C(=O)N[C@@H](Cc1ccc2ccccc2c1)[C@@H]1O[C@@H]1[C@H](Cc1ccc2ccccc2c1)NC(=O)[C@@H](NC(=O)N(C)Cc1ccccn1)[C@@H](C)CC` [Example 33, 1,6-Dinaphth-2-yl-2(S),5(S)-di[N-[2(S)-N-[[N(methyl)-N(pyrid-2-ylmethyl)amino]carbonyl]amino-3(S)-methylpentanoyl]amino]-3,4-cis-epoxyhexane], the figure is 25%; as for `CC[C@H](NC(=O)N(C)Cc1ccccn1)C(=O)N[C@@H](Cc1ccc2ccccc2c1)[C@@H]1O[C@@H]1[C@H](Cc1ccc2ccccc2c1)NC(=O)[C@H](CC)NC(=O)N(C)Cc1ccccn1` [Example 34, 1,6-Dinaphth-2-yl-2(S),5(S)-di[N-[2(S)-N-[[N(methyl)-N (pyrid-2-ylmethyl)amino]carbonyl]aminobutanoyl]amino]-3,4-cis-epoxyhexane], 34%.
On the same count and under the same terms, as for `CC(C)[C@H](NC(=O)N(C)CCc1ccccn1)C(=O)N[C@@H](Cc1ccccc1)[C@@H]1O[C@@H]1[C@H](Cc1ccccc1)NC(=O)[C@@H](NC(=O)N(C)CCc1ccccn1)C(C)C` [Example 16, 1,6-Diphenyl-2(S),5(S)-di[N-[2(S)-N-[[N(methyl)-N(pyrid-2-ylethyl)amino]carbonyl]amino-3-methylbutanoyl]amino]-3,4-cis-epoxyhexane], the figure is 32%.

Staying with this assay, now noted: read-out: Fluorescence Assay IC50 (converted).
`C[C@H](NC(=O)OCc1ccccc1)C(=O)N[C@@H](Cc1ccccc1)[C@@H]1O[C@@H]1[C@H](Cc1ccccc1)NC(=O)[C@H](C)NC(=O)OCc1ccccc1` [Example 20, 1,6-Diphenyl-2(S),5(S)-di[N-[2(S)-N(benzyloxycarbonyl)amino]propanoyl]amino-3,4-cis-epoxyhexane]: the IC50 (usually the concentration that inhibits the measured activity by half) was 0.803 µM.
Take `CC[C@H](NC(=O)OCc1ccccc1)C(=O)N[C@@H](Cc1ccccc1)[C@@H]1O[C@@H]1[C@H](Cc1ccccc1)NC(=O)[C@H](CC)NC(=O)OCc1ccccc1` [Example 2, 1,6-Diphenyl-2(S),5(S)-di[N-[2(S)-N(benzyloxycarbonyl)aminobutanoyl]amino]-3,4-cis-epoxyhexane]: the IC50 was 0.0144 µM.
On the same count and under the same terms, as for `CCC[C@H](NC(=O)N(C)Cc1ccc2ccccc2n1)C(=O)N[C@@H](Cc1ccccc1)[C@@H]1O[C@@H]1[C@H](Cc1ccccc1)NC(=O)[C@H](CCC)NC(=O)N(C)Cc1ccc2ccccc2n1` [Example 21, 1,6-Diphenyl-2(S),5(S)-di[N-[2(S)-N[[N(methyl)-N(quinolin-2-ylmethyl)amino]carbonyl]aminopentanoyl]amino]-3,4-cis epoxyhexane], the figure is 0.0661 µM; as for `CCCC[C@H](NC(=O)N(C)Cc1ccc2ccccc2n1)C(=O)N[C@@H](Cc1ccccc1)[C@@H]1O[C@@H]1[C@H](Cc1ccccc1)NC(=O)[C@H](CCCC)NC(=O)N(C)Cc1ccc2ccccc2n1` [Example 22, 1,6-Diphenyl-2(S),5(S)-di[N-[2(S)-N[[N(methyl)-N(quinolin-2-ylmethyl)amino]carbonyl]aminohexanoyl]amino]-3,4-cis-epoxyhexane], 0.437 µM.
On the same count and under the same terms, as for `CC[C@H](C)[C@H](NC(=O)NCc1ccccn1)C(=O)N[C@@H](Cc1ccccc1)[C@@H]1O[C@@H]1[C@H](Cc1ccccc1)NC(=O)[C@@H](NC(=O)NCc1ccccn1)[C@@H](C)CC` [Example 31], the figure is 0.0324 µM; as for `N#CC[C@H](NC(=O)c1ccc2ccccc2n1)C(=O)N[C@@H](Cc1ccccc1)[C@@H]1O[C@@H]1[C@H](Cc1ccccc1)NC(=O)[C@H](CC#N)NC(=O)c1ccc2ccccc2n1` [Example 3, 1,6-Diphenyl-2(S),5(S)-di[N-[2(S)-N(quinolin-2-ylcarbonyl)amino-3-cyanopropanoyl]amino]-3,4-cis-epoxyhexane], 5.35 µM; as for `CC[C@H](NC(=O)OCc1ccc2ccccc2n1)C(=O)N[C@@H](Cc1ccccc1)[C@@H]1O[C@@H]1[C@H](Cc1ccccc1)NC(=O)[C@H](CC)NC(=O)OCc1ccc2ccccc2n1` [Example 10, 1,6-Diphenyl-2(S),5(S)-di[N-[2(S)-N[(quinolin-2-ylmethoxy)carbonyl]aminobutanoyl]amino]-3,4-cis-epoxyhexane], 0.00219 µM.
The same measure, in the same setting: as for `NC(=O)CC[C@H](NC(=O)OCc1ccccc1)C(=O)N[C@@H](Cc1ccccc1)[C@@H]1O[C@@H]1[C@H](Cc1ccccc1)NC(=O)[C@H](CCC(N)=O)NC(=O)OCc1ccccc1` [Example 12, 1,6-Diphenyl-2(S),5(S)-di[N-[2(S)-N(benzyloxycarbonyl)amino-4-carbamoylbutanoyl]amino]-3,4-cis-epoxyhexane], the figure is 1.73 µM.
With `CC[C@H](NC(=O)N(C)Cc1ccccn1)C(=O)N[C@@H](CCCc1ccccc1)[C@@H]1O[C@@H]1[C@H](CCCc1ccccc1)NC(=O)[C@H](CC)NC(=O)N(C)Cc1ccccn1` [Example 37, 1,10-Diphenyl-4(S),7(S)-di[N-[2(S)-N-[[N(methyl)-N(pyrid-2-ylmethyl)amino]carbonyl]aminobutanoyl]amino]-5,6-cis-epoxydecane], the IC50 is 0.206 µM.
Same read-out and setting: under `CC[C@H](NC(=O)N(C)Cc1ccc2ccccc2n1)C(=O)N[C@@H](CCCc1ccccc1)[C@@H]1O[C@@H]1[C@H](CCCc1ccccc1)NC(=O)[C@H](CC)NC(=O)N(C)Cc1ccc2ccccc2n1` [Example 38, 1,10-Diphenyl-4(S),7(S)-di[N-[2(S)-N-[[N(methyl)-N(quinolin-2-ylmethyl)amino]carbonyl]aminobutanoyl]amino]-5,6-cis-epoxydecane] stands 0.0238 µM.

Staying with this assay, now noted: read-out: Fluorescence Assay average IC50 (marked *) (converted).
On to `CC[C@H](NC(=O)N(C)Cc1ccc2ccccc2n1)C(=O)N[C@@H](Cc1ccc2ccccc2c1)[C@@H]1O[C@@H]1[C@H](Cc1ccc2ccccc2c1)NC(=O)[C@H](CC)NC(=O)N(C)Cc1ccc2ccccc2n1` [Example 32], for which the IC50 was 0.181 µM.
For `CC[C@H](C)[C@H](NC(=O)N(C)Cc1ccc2ccccc2n1)C(=O)N[C@@H](Cc1ccccc1)[C@@H]1O[C@@H]1[C@H](Cc1ccccc1)NC(=O)[C@@H](NC(=O)N(C)Cc1ccc2ccccc2n1)[C@@H](C)CC` [Example 19, 1,6-Diphenyl-2(S),5(S)-di[N-[2(S)-N[[N(methyl)-N(quinolin-2-ylmethyl)amino]carbonyl]amino-3(S)methylpentanoyl]amino]-3,4-cis-epoxyhexane], the IC50 is 0.166 µM.
Take `CC(C)[C@H](NC(=O)OCc1ccccc1)C(=O)N[C@@H](Cc1ccccc1)[C@@H]1O[C@@H]1[C@H](Cc1ccccc1)NC(=O)[C@@H](NC(=O)OCc1ccccc1)C(C)C` [Example 1, 1,6-Diphenyl-2(S),5(S)-di[N-[2(S)-N(benzyloxycarbonyl)amino-3-methyl-butanoyl]amino]-3,4-cis-epoxyhexane]: the IC50 was 0.212 µM.
Regarding `CC(C)[C@H](NC(=O)OCc1ccc2ccccc2n1)C(=O)N[C@@H](Cc1ccccc1)[C@@H]1O[C@@H]1[C@H](Cc1ccccc1)NC(=O)[C@@H](NC(=O)OCc1ccc2ccccc2n1)C(C)C` [Example 4, 1,6-Diphenyl-2(S),5(S)-di[N-[2(S)-N[(quinolin-2-ylmethoxy)carbonyl]amino-3-methylbutanoyl]amino]-3,4-cis-epoxyhexane], the IC50 is 0.0599 µM.
